Target: T1, α-synuclein (αS) (Homo sapiens, UniProt P37840)
T1 construct: gene SNCA
Assay: seeded aggregation kinetics (ThT fluorescence) at […] compound
Format: biochemical

How did the “seeded aggregation kinetics (ThT fluorescence) at 25 and 50 μM compound” value turn out when CN1C(C(=O)Nc2ccccn2)=C(O)c2sc(Cl)cc2S1(=O)=O [lornoxicam] was run?
The value was “The potency of lornoxicam was mild in comparison to hits found previously, but it was nonetheless observable”.

— article PMC10373478, “Exploration and Exploitation Approaches Based on Generative Machine Learning to Identify Potent Small Molecule Inhibitors of α-Synuclein Secondary Nucleation” (Journal of Chemical Theory and Computation, 2023)
